{"source": "patent US20240108570A1", "about": "“METHOD AND COMPOSITION FOR DELIVERING A COMPOUND THROUGH A BIOLOGICAL BARRIER” (priority 2012, published 2024)", "key": {"[1]": {"system": "skin of human volunteers", "details": "in vivo", "description": "Mixtures were formed by taking 50 μl of sodium fluorescein dye (1 mg/mL), with or without 5 mg of silica EMP. […] FIG. 18f refers to the sum of the total sodium fluorescein integrated density within the skin. The level of significance was accepted at p<0.05 based on a one-way ANOVA, Tukey's multiple comparison test."}, "[2]": {"system": "vaginal tracts of mice", "details": "mouse, in vivo", "description": "In these in vivo mouse experiments, a 10 μl quantity of sodium fluorescein (1 mg/ml) was pipetted into the vaginal tracts of mice. In one group of mice, dye application occurred only after prior application of a small quantity of EMP (5 mg). The dye solution was gently massaged with a rod-like applicator. Vaginal tracts were removed at sacrifice and mounted for cryosectioning."}, "[3]": {"system": "in vivo pig skin", "protocol": "FIG. 13 represents comparison of delivery of sodium fluorescein to in vivo pig skin. In vivo experiments were conducted on 6 female Landrace weaner pigs weighing approx. 10-15 kg (Centre for Advanced Animal Science, The University of Queensland Gatton Campus, Australia). The pigs were anaesthetized intramuscularly by co-administration of Butorphanol (0.15 mg/kg) and Zoletil (5 mg/kg) followed by intubation with isoflurane to maintain unconsciousness. Following anesthesia the flanks of the pigs were washed with soapy water and patted dry. The flank was then shaved gently using an electric razor. The flank was marked, to separate the application areas (2 cm diameter circles, 2 cm apart). Payload administration and amounts were done using the same parameters as for ex vivo. After all the groups/samples were applied and swabbed, the pig was turned over and the procedure repeated to the other flank (resulting in 12 samples per group). Finally, the pig was culled and the center of the application areas was excised using a 6 mm circular punch biopsy. Each sample was placed on dry-ice followed by storage at −20° C. prior to analysis."}, "[4]": {"system": "freshly excised, non-diseased human skin", "format": "in vitro ADME", "protocol": "The results are illustrated in FIGS. 5 to 8.\nFIGS. 7 and 8 illustrate the effect of application forces on the penetration of sodium fluorescein in conjunction with ‘long’ EMPs. Measurements were made 15 minutes after application to freshly excised, non-diseased human skin (from female, Caucasian, abdominal plastic surgery patients). […] Application forces of 0.2N, 5N and 10N were all applied using a gloved finger on a scale. The excised skin is place on the scale and the finger is applied to the EMPs/skin until a weight is achieved on the scale corresponding to either 0.2, 5 or 10 N.) All forces are effective in improving penetration of sodium fluorescein into the stratum spinosum. There was an apparent optimum application force of 5N under the conditions of the tests."}, "[5]": {"system": "excised human skin", "description": "Both ex vivo and in vivo tissue samples were analysed en face using fluorescence (excited at 488 nm) and reflectance (excited at 750 nm) confocal microscopy (Vivascope® 1500 Multilaser, Lucid Inc., USA). The microscope also consisted of a dermatoscope, which was used to image and position the skin prior to microscopy. The samples were optically sectioned at 1.5 μm intervals from the surface of the skin down to a depth of 150 μm. Each optical slice consisted of a focal area of 500×500 μm^2.\nIn relation to the sodium fluorescein signal, an area 300×300 μm^2 in size was selected in the center of the image and the raw integrated density was measured throughout the entire stack. The data were then divided by the analysed area (9000 μm^2) resulting in the sodium fluorescein integrated density per μm^2.\nA mixture was formed of by taking 50 μl of sodium fluorescein dye (1 mg/mL) and mixed with or without 5 mg of silica EMP This mixture was applied to previously frozen or freshly excised human skin under varying conditions of EMP length and/or application force.\nThe skin was stored at −20° C. and then brought to room temperature prior to use. […] It is measured by dividing the sodium fluorescein pixel intensity achieved with EMPs by the sodium fluorescein pixel intensity achieved without EMPs. […]"}, "[6]": {"system": "excised pig skin", "description": "Excised pig ears sourced from a local abattoir were washed with soap and water followed by rinsing. The ears were stored at −20° C. until required. The ears were thawed and then gently shaved to remove excessive hair, then rinsed and pat dried. The ventral side of the ear was then separated from the cartilage using a scalpel. The excised skin was pinned down on a cork-board maintaining slight tension across the surface. For EMP delivery, 50 μL of the payload solution (1 mg/mL sodium fluorescein, 0.01 mCi/mL vitamin A or 0.01 mCi/mL, vitamin B3 respectively) was gently mixed with 5 mg of either the ‘short’ or ‘long’ EMP preparations. The samples were then scraped onto the surface of the skin.\nAdministration was achieved by massaging the payload mixture for 30 s using small circular motions within a 3 cm 2 circular area. […] After administration, the payload was left on the skin for 5 min followed by removal of excess solution with cotton swabs. The center of the application area was excised using a 6 mm circular punch biopsy. A total of 6 samples were done per group. Each sample was stored at −20° C. prior to analysis.\nThe integrated density of sodium fluorescein is directly related to the concentration of the drug within the skin. […] In this case, skin was pinned out taut on a cork board, epidermal side uppermost. Tritiated compound was applied to the skin surface and left for 15 minutes. […]"}, "[7]": {"system": "ex vivo pig skin", "format": "in vitro ADME", "protocol": "FIG. 12 represents comparison of delivery of sodium fluorescein to ex vivo pig skin. Pig skin was sourced and prepared for drug treatment as described for FIG. 10. For EMP delivery, 50 μL of the payload solution (1 mg/mL sodium fluorescein) was gently mixed with or without 5 mg of either the ‘short’ or ‘long’ EMP preparations. The samples were then scraped onto the surface of the skin. Administration was achieved by massaging the solution for 30 s using small circular motions within a 3 cm 2 circular area. To maintain consistency between administrations, a small hand-held applicator was designed resulting in an application force of 0.25 N (as described in AU2012905650). After administration, the payload was left on the skin for 5 min followed by removal of excess solution with cotton swabs. The centre of the application area was excised using a 6 mm circular punch biopsy. A total of 6 samples were done per group. Each sample was stored at −20° C. prior to analysis. […] FIG. 12d represents fluorescence confocal microscopy mosaic images of the pig skin with topical application of sodium fluorescein only (no EMP). […] The images in FIGS. 12d to 12l have been pseudo-colored in greyscale, where black corresponds to 0 (min) fluorescence intensity and white corresponds to 255 (max) fluorescence intensity, as shown on the scale superimposed on FIG. 12l."}, "[8]": {"system": "volar forearm skin of human volunteers", "details": "in vivo", "from_the_text": "In both Examples 4 and 5, elongate microparticles (EMPs) were fabricated from silicon using deep reactive ion etching. Lithography was used to pattern a silicon wafer that was then coated with SU-8 photoresist. After a post exposure bake, the resist was developed in […]. The SU8 structures remaining served as a physical mask during etching, which were etched using a Bosch process. The etched EMPs were washed three times in acetone, followed by three washes in 100% ethanol and lastly three times in distilled water. Prior to application the EMPs were removed from the silicon wafer.\nThe ability of silicon EMPs of various diameters to penetrate the skin was determined by application of a mixture of sodium fluorescein and EMPs to the volar forearm of four human, healthy volunteers using a plastic applicator as described in provisional patent application AU2012905650. 50 μL of the sodium fluorescein solution having a concentration of 1 mg/mL was mixed with 5 mg of silicon EMPs and applied to the forearm using a gentle massage motion with the applicator. […]\nThree different populations of EMPs were used to assess the influence of EMP diameter on penetration and delivery. […] Grouped data was analysed using a one-way ANOVA with a Tukey's multiple comparison test."}}, "data": [{"smiles": "O=C([O-])c1ccccc1-c1c2ccc(=O)cc-2oc2cc([O-])ccc12.[Na+].[Na+]", "note": "[sodium fluorescein]", "values": [{"measurement": "penetration of topically applied sodium fluorescein", "setting": "[1]", "value": "more lasting and deeper penetration"}, {"measurement": "penetration depth within the epithelium", "setting": "[2]", "value": "about 60 μm"}, {"measurement": "penetration depth within the epithelium relative to delivery in the absence of EMP", "setting": "[2]", "value": "more than 4 times"}, {"measurement": "fluorescence detected below the surface of the skin", "setting": "[3]", "value": "Minimal fluorescence"}, {"measurement": "sodium fluorescein signal", "setting": "[3]", "value": "greater signal"}, {"measurement": "increase in delivery of sodium fluorescein dye across the stratum corneum", "setting": "[4]", "value": "several-fold increase"}, {"measurement": "amount of sodium fluorescein penetrated (into the stratum spinosum)", "setting": "[5]", "value": "greatest amount"}, {"measurement": "transdermal delivery of sodium fluorescein dye", "setting": "[5]", "value": "greatly enhance"}, {"measurement": "enhancement of penetration of sodium fluorescein", "setting": "[6]", "value": "superior ability"}, {"measurement": "fluorescence detected below the surface of the skin", "setting": "[7]", "value": "minimal fluorescence"}, {"measurement": "amount of sodium fluorescein detected", "setting": "[8]", "value": "no significant difference"}]}]}
